The values below come from US7932266B2, “Isoquinoline derivatives as calpain inhibitors” (Consejo Superior de Investigaciones Cientificas, priority 2004, dated 2011).

Structures are written as SMILES.

In one series the test system is calpain. Briefly: Calpain inhibition, first results on earlier isoquinoline derivatives. The series is classed as biochemical. The conditions noted are these: simple derivative of isoquinoline without peptide chain; applicant's first results.
Series [1] addresses T1, calpain I from porcine erythrocyte (Sus scrofa, UniProt P35750).
T1 construct: calpain I from porcine erythrocyte (Calbiochem, Cat No 208712) was used as enzyme; purchased Calbiochem 208712; host or cells: porcine erythrocyte (natural source)
T1 sequence (P35750 1-714): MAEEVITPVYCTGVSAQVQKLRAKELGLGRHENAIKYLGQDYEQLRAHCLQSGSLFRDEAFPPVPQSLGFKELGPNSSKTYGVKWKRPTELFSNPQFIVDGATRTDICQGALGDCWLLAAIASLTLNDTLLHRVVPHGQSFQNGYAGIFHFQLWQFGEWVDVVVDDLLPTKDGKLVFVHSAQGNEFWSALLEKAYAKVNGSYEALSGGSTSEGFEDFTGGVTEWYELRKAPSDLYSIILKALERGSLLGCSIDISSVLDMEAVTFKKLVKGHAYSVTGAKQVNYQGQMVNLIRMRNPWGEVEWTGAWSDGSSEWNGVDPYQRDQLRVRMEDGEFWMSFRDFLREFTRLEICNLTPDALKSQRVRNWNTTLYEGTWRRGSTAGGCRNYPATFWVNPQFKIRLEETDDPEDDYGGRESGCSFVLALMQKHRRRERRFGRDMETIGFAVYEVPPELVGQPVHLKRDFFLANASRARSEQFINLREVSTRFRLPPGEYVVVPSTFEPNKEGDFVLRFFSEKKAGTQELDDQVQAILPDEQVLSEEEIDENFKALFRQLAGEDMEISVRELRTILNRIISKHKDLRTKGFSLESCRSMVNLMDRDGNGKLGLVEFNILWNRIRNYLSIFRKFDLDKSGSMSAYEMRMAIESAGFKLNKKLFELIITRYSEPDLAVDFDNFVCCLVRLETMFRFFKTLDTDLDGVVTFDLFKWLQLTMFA
T1 sequence (P04574 1-266 partner): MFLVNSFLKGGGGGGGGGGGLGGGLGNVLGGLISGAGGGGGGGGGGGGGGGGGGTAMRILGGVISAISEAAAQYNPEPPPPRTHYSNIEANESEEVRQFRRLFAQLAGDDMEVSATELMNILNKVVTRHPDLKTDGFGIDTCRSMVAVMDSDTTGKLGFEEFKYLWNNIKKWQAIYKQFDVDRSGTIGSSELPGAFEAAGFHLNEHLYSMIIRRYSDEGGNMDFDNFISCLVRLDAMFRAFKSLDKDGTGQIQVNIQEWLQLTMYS
Description: Enzyme activity test: inhibition of calpain (fluorimetric, BODIPY-FL casein substrate). Conditions: 7 inhibitor concentrations between 10 nM and 200 μM. Type of series: biochemical. An excerpt:
The capacity to inhibit calpain has been quantified in terms of the value of IC50, which is defined as the concentration of inhibitor that reduces the catalytic activity of an enzyme by half. The lower the value of IC50, the more powerful the inhibitor. Inhibition results on calpain I (the most relevant from a physiological point of view) of some compounds of the present invention are shown in table 1 and in FIG. 1. Given that calpain II, also known as milli-calpain, needs a greater amount of Ca^2+ for activation, it might not possibly have such a relevant physiological role since such a concentration of Ca^2+ would cause cell death before the milli-calpain could become activated. For this reason, the inhibition tests have been performed for calpain I, though they can be extrapolated for calpain II.
The calpain inhibition capacity has been quantified in terms of the value of IC50, which is defined as the concentration of inhibitor that reduces the catalytic activity of an enzyme by half. The lower the value of IC50, the more powerful the inhibitor. Inhibition results on calpain I (the most relevant from a physiological point of view) of some compounds of the present invention are shown in table 1 and in FIG. 1.
The experiments were conducted spectrofluorimetrically using a Spectrofluor Tecan Corp 93382 spectrofluorimeter, exciting at […] and measuring at […]. Casein marked with BODIPY-FL® (Molecular Probes) was used as substrate and calpain I from porcine erythrocyte (Calbiochem, Cat No 208712) was used as enzyme. The freeze-dried substrate is component A of the protease assay kit EnzChek® green fluorescence from Molecular Probes (reference # E-6638); component B, known as 20× digestion buffer, contains 13 mL of 200 mM Tris-HCl, pH 7.8 and 2 mM sodium azide. The commercial calpain I that was used has a concentration of 1 mg in 1 mL of aqueous solution (the solution is 20 mM imidazol-HCl, pH 6.8, 1 mM EDTA, 1 mM EGTA, 5 mM β-mercaptoethanol, containing 30% glycerine).
2.5 mL of 20× digestion buffer (component B of the kit from Molecular Probes) was diluted with water to a total volume of 50 mL.
200 μg of freeze-dried substrate (component A of the kit from Molecular Probes) was dissolved in 200 μL of phosphate saline buffer. This solution was decanted into a graduated flask and diluted with the digestion solution to a total volume of 40 mL.
20 μL of commercial solution of calpain was diluted with the digestion solution to a total volume of 200 μL.
The inhibitor was dissolved in DMSO. Each inhibitor was assayed at 7 different concentrations between 10 nM and 200 μM.
All the data were obtained measuring the variation in fluorescence with time. The use of a multi-cell device and Eppendorf multi-channel pipettes permitted measurement of the variation in fluorescence in up to 64 experiments. In this way, the control experiment and the experiments with the different concentrations of inhibitor was carried out in the same set of measurements. All the experiments were conducted twice.
The control experiment was carried out mixing 180 μL of casein solution and 5 μL of calpain solution. The reaction was initiated by the addition of 10 μL of a 50 μM solution of CaCl2 in water, and the fluorescence was measured from the moment of the addition of Ca^2+ (time=0) and for 250-300 seconds (measuring during 20 kinetic cycles). The variation in fluorescence (ΔF) was represented against time (t). In order to test the effect of DMSO on enzyme activity, additional control experiments were conducted adding DMSO (in the quantities used in the experiments with the inhibitors), with the same result being obtained as in the control experiment.
180 μL of casein solution, 5 μL of calpain solution and 5 μL of inhibitor solution (of variable concentration) were mixed together. […]

Take `COC(=O)/C=C1/c2ccccc2C(=O)N[C@H]1C(C)C` [Compound 3]: the “activity as calpain inhibitor” value with calpain is “not calpain inhibitors”. In turn, `CC[C@H](C)[C@H](NC(=O)OCC1c2ccccc2-c2ccccc21)C(=O)Nc1ccccc1-c1ccccc1NC(=O)/C=C1/c2ccccc2C(=O)N[C@H]1[C@@H](C)CC` [Compound 21, (S,S,S,S,Z)-9H-fuorene-9-ylmethyl (1-{2′-[2-(3-sec-butyl-1-oxo-2,3-dihydro-1 H-isoquinolin-4-yliden)-acetylamino]-biphenyl-2-ylcarbamoyl}-2-methyl-butyl)-carbamate] gave a melting point of 116 to 120 °C. For the same compound, half-maximal inhibition in series [1] (IC50) required 5 µM. `CC[C@H](C)[C@@H]1NC(=O)c2ccccc2/C1=C/C(=O)Nc1ccccc1-c1ccccc1NC(=O)[C@@H](N)C(C)C` [Compound 22, (S,S,S,Z)-2-amino-N-{2′-[2-(3-sec-butyl-1-oxo-2,3-dihydro-1H-isoquinolin-4-yliden)-acetylamino]-biphenyl-2-yl}-3-methyl-butyramide]: the melting point was in the range of 110 to 113 °C. This compound registered an IC50 in series [1] of 17 µM.

Regarding `CC[C@H](C)[C@H](NC(=O)/C=C1/c2ccccc2C(=O)N[C@H]1[C@@H](C)CC)C(=O)N[C@H](C(=O)N[C@H](C(=O)OC)[C@@H](C)CC)[C@@H](C)CC` [Compound 26, methyl (S,S,S,S,S,S,S,S,S,Z)-2-(2-{2-[2-(3-sec-butyl-1-oxo-2,3-dihydro-1H-isoquinolin-4-yliden)-acetylamino]-3-methyl-pentanoylamino}-3-methyl-pentanoylamino)-3-methyl-pentanoate], the melting point lay in the range of 151 to 154 °C. Further, the IC50 in series [1] was found to be 0.159 µM.

`CC[C@H](C)[C@@H]1NC(=O)c2ccccc2/C1=C/C(=O)N[C@H](C(=O)N[C@@H](Cc1ccccc1)C(=O)OC)C(C)C` [Compound 27, methyl (S,S,S,S,Z)-2-{2-[2-(3-sec-butyl-1-oxo-2,3-dihydro-1H-isoquinolin-4-yliden)-acetylamino]-3-methyl-butirylamino}-3-phenyl-propionate] displayed a melting point of 174 to 176 °C. The IC50 in series [1] is 0.626 µM. The corresponding values for `CC[C@H](C)[C@@H]1NC(=S)c2ccccc2/C1=C/C(=O)OC` [Compound 28, methyl (S,S,Z)-(3-sec-butyl-1-thioxo-2,3-dihydro-1H-isoquinolin-4-yliden)-acetate] are 50 to 53 °C and 38 µM.
